Assay: refractive index (Na D-line) (dimensionless); xn = mol fraction of the nth substance listed
Settings: 101 kPa, Liquid, Standard Abbe refractometry

CCCCOC(C)=O [butyl ethanoate] + Cc1ccc(C)cc1
refractive index
Settings | 293.15 K | 298.15 K | 303.15 K | 308.15 K | 313.15 K
x1 = 0.0494 | 1.49045 | 1.48779 | 1.48504 | 1.48238 | 1.47977
x1 = 0.1014 | 1.48487 | 1.48216 | 1.4794 | 1.47685 | 1.47409
x1 = 0.1494 | 1.4798 | 1.4771 | 1.47436 | 1.47174 | 1.46903
x1 = 0.2012 | 1.47424 | 1.47153 | 1.46878 | 1.46623 | 1.46356
x1 = 0.248 | 1.46931 | 1.46663 | 1.46387 | 1.46134 | 1.45863
x1 = 0.3077 | 1.46309 | 1.46041 | 1.45768 | 1.45514 | 1.45247
x1 = 0.3519 | 1.45847 | 1.45583 | 1.45312 | 1.45058 | 1.44789
x1 = 0.404 | 1.45307 | 1.45044 | 1.44776 | 1.44522 | 1.44259
x1 = 0.4519 | 1.44815 | 1.44554 | 1.44286 | 1.44032 | 1.4377
x1 = 0.4999 | 1.44322 | 1.44061 | 1.43796 | 1.43542 | 1.43282
x1 = 0.5505 | 1.43808 | 1.4355 | 1.43288 | 1.43034 | 1.42775
x1 = 0.5991 | 1.43317 | 1.4306 | 1.42798 | 1.42546 | 1.42286
x1 = 0.6518 | 1.42787 | 1.42531 | 1.42272 | 1.42021 | 1.41762
x1 = 0.6993 | 1.42315 | 1.42063 | 1.41806 | 1.41551 | 1.41295
x1 = 0.749 | 1.41825 | 1.41572 | 1.41319 | 1.41066 | 1.40812
x1 = 0.799 | 1.41333 | 1.41087 | 1.40834 | 1.40581 | 1.40327
x1 = 0.8519 | 1.4083 | 1.40578 | 1.40327 | 1.40076 | 1.39826
x1 = 0.8979 | 1.40384 | 1.40137 | 1.39885 | 1.39641 | 1.3939
x1 = 0.9489 | 1.39894 | 1.39654 | 1.39405 | 1.39155 | 1.3891

From the NIST ThermoML archive (doi:10.1007/s10765-005-8096-3)
